Earlier results, collected in EP3808777A1, “STABLE LIQUID ANTIBODY FORMULATIONS” (Glenmark Specialty S.A., priority 2019, dated 2021).

Row | Structure (SMILES) | effective buffering range (pH range) | pKa values
1 | N[C@@H](Cc1c[nH]cn1)C(=O)O [L-hisitidine] | 5.5-7.4 | –
2 | NCCCC[C@H](N)C(=O)O [Lysine] | – | 9.06
3 | N=C(N)NCCC[C@H](N)C(=O)O [Arginine] | – | 1.82
